Results: US20120316186A1, “DEAZAPURINES USEFUL AS INHIBITORS OF JANUS KINASES” (priority 2006, published 2012)

Experiments:
JAK2 = JAK2 (Homo sapiens, UniProt O60674); assay: JAK2 Inhibition Assay; assay type: biochemical; settings: 15 μM poly(Glu)4Tyr, 12 μM ATP; read-out: JAK2 enzyme inhibition data (Ki)
Method: (§1) Compounds were screened for their ability to inhibit JAK3 using the assay shown below. Reactions were carried out in a kinase buffer containing 100 mM HEPES (pH 7.4), 1 mM DTT, 10 mM MgCl2, 25 mM NaCl, and 0.01% BSA. Substrate concentrations in the assay were 5 μM ATP (200 uCi/μmole ATP) and 1 μM poly(Glu)4Tyr. Reactions were carried out at 25° C. and 1 nM JAK3.
(§2) To each well of a 96 well polycarbonate plate was added 1.5 μl of a candidate JAK3 inhibitor along with 50 μl of kinase buffer containing 2 μM poly(Glu)4Tyr and 10 μM ATP. This was then mixed and 50 μl of kinase buffer containing 2 nM JAK3 enzyme was added to start the reaction. After 20 minutes at room temperature (25° C.), the reaction was stopped with 50 μl of 20% trichloroacetic acid (TCA) that also contained 0.4 mM ATP. The entire contents of each well were then transferred to a 96 well glass fiber filter plate using a TomTek Cell Harvester. After washing, 60 μl of scintillation fluid was added and ^33P incorporation detected on a Perkin Elmer TopCount.
The assays were as described above in Example 36 except that JAK-2 enzyme was used, the final poly(Glu)4Tyr concentration was 15 μM, and final ATP concentration was 12 μM.

JAK3 = target: T1, JAK3 (Homo sapiens, UniProt P52333); assay: JAK3 Inhibition Assay; assay type: biochemical; settings: 1 μM poly(Glu)4Tyr, 5 μM ATP, 1 nM JAK3, 25° C.; read-out: JAK3 enzyme inhibition data (Ki)
T1 sequence (P52333 1-1124): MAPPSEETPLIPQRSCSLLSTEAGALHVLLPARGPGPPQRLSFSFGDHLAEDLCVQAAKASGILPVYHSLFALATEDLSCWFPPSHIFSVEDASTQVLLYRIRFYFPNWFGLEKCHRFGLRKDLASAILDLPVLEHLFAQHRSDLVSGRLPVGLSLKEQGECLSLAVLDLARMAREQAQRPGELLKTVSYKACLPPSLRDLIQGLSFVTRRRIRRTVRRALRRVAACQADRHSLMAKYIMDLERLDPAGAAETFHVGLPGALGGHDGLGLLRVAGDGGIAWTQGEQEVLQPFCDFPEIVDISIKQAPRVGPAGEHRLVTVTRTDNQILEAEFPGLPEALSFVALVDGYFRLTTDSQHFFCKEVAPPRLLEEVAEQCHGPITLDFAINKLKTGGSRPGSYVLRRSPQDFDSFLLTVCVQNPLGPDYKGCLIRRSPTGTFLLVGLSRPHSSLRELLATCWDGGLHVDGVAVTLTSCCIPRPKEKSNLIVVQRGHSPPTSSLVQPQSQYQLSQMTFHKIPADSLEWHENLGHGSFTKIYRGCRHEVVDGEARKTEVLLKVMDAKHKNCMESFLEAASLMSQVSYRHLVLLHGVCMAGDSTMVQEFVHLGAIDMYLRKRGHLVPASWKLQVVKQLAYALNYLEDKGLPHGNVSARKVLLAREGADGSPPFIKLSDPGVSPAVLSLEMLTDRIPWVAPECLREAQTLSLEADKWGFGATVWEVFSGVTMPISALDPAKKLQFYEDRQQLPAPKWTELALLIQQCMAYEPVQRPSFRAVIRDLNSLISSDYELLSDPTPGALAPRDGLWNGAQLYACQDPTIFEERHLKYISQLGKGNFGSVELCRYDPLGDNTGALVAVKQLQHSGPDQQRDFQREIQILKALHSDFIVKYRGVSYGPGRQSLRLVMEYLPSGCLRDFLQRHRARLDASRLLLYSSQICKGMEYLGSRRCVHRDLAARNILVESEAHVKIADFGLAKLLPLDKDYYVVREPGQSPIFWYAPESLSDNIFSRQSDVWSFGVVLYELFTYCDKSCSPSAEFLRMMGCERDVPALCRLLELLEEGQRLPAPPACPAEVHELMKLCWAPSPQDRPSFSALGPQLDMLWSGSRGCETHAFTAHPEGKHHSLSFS
Method: as §1, §2

JAK2, sequence (O60674 whole entry): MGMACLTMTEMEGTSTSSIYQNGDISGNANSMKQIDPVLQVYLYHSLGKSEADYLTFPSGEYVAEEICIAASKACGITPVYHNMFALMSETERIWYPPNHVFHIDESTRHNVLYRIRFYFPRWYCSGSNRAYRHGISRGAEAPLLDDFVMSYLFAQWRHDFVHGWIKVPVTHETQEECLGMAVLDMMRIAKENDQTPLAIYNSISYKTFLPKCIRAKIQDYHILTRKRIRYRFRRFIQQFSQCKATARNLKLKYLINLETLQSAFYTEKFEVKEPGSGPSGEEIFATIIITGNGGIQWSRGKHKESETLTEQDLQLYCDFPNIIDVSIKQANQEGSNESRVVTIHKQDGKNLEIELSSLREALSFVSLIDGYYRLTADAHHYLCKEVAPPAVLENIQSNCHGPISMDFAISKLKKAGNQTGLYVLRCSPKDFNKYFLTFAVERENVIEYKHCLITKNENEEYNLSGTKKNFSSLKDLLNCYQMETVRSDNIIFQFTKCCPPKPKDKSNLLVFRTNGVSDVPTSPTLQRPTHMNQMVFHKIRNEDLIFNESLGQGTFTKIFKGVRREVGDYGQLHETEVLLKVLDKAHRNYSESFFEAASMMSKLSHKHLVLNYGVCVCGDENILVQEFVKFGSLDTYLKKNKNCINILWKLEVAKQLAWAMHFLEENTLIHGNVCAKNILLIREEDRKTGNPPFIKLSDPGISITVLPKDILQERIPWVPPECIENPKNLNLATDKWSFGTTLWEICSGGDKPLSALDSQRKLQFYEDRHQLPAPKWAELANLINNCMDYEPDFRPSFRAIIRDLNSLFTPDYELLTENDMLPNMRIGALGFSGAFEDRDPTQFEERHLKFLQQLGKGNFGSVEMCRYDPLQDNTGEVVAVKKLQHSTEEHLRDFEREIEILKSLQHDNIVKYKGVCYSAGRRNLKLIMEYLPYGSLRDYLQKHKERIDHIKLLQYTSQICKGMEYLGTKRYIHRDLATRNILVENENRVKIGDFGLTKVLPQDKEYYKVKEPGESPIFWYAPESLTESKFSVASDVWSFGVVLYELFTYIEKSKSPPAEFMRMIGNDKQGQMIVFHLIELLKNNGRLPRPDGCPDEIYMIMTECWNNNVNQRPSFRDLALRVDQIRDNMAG

Row | SMILES | Ki (JAK2) | Ki (JAK3)
1 | CC(CC(=O)Nc1nc(-c2ncnc3[nH]ccc23)cs1)CC(C)(C)C (centres unmarked) [Compound 33] | < 100 nM | 100 to 500 nM
2 | O=C(Nc1nc(-c2ncnc3[nH]ccc23)cs1)C1CCCOC1 (centres unmarked) [Compound 61] | < 100 nM | < 100 nM
3 | O=C(c1cc(-c2ncnc3[nH]ccc23)c[nH]1)N(CCC(F)(F)F)CC1CC1 [Compound 110] | < 100 nM | < 100 nM
4 | N#CCCN(C(=O)c1cc(-c2ncnc3[nH]ccc23)c[nH]1)C1CCCC1 [Compound 139] | < 100 nM | 100 to 500 nM
5 | O=C(O)CC1(CC(=O)Nc2nc(-c3ncnc4[nH]ccc34)cs2)CCCC1 [Compound 143] | 100 to 500 nM | 100 to 500 nM
6 | O=C(O)C1CCCCC1C(=O)Nc1nc(-c2ncnc3[nH]ccc23)cs1 (centres unmarked) [Compound 144] | 100 to 500 nM | 100 to 500 nM
7 | O=C(Cc1ccccc1F)Nc1nc(-c2ncnc3[nH]ccc23)cs1 [Compound 156] | < 100 nM | 100 to 500 nM
